Measurements taken from US20130096119A1, “Isoquinolin-3-Ylurea Derivatives” (priority 2010, published 2013).
In brackets after ≈: the same amount, converted by molar mass.

The molecules below were run on S. pneumoniae ATCC 49619 (assay: Minimal inhibitory concentration (MIC) by microdilution method (CLSI M7-A7)). Conditions: Streptococcus pneumoniae, ATCC49619, cation-adjusted Mueller-Hinton Broth supplemented with 3% (v/v) lysed horse blood.
Type: cell-based, Streptococcus pneumoniae
In short: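 For S. pneumoniae, cation-adjusted Mueller-Hinton broth carried 3% (v/v) lysed horse blood; MICs (mg/l) were read by CLSI M7-A7 microdilution.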

MIC [mg/L]	Compound
0.125 (≈ 0.334 µM)	CCNC(=O)Nc1cc2c(F)c(-c3cnc4ccccc4c3)cc(C)c2cn1 [Example 143, 1-ethyl-3-[5-fluoro-8-methyl-6-(quinolin-3-yl)-isoquinolin-3-yl]-urea]
1	CCNC(=O)Nc1cc2c(-c3c[nH]cn3)ccc(C)c2cn1.Cl [Example 280, 1-ethyl-3-[5-(1H-imidazol-4-yl)-8-methyl-isoquinolin-3-yl]urea hydrochloride]
0.125 (≈ 0.359 µM)	CCNC(=O)Nc1cc2cc(NC(=O)c3ccccc3)cc(C)c2cn1 [Example 106, N-[3-(3-ethyl-ureido)-8-methyl-isoquinolin-6-yl]-benzamide]
4 (≈ 10.1 µM)	CCNC(=O)Nc1cc2c(CN(C)C)ccc(Nc3cccc(OC)n3)c2cn1 [Example 273, 1-{5-[(dimethylamino)methyl]-8-[(6-methoxy-pyridin-2-yl)amino]-isoquinolin-3-yl}-3-ethyl-urea]
8	CCNC(=O)Nc1cc2cccc(CNc3ccc(OC)nc3)c2cn1.Cl [Example 302, 1-ethyl-3-{8-[(6-methoxy-pyridin-3-ylamino)-methyl]-isoquinolin-3-yl}-urea hydrochloride]
2	CCNC(=O)Nc1cc2cccc(Nc3ccc(C(=O)NC)cc3)c2cn1.Cl [Example 204, 4-[3-(3-ethyl-ureido)-isoquinolin-8-ylamino]-N-methyl-benzamide hydrochloride]
0.25 (≈ 0.639 µM)	CCNC(=O)Nc1cc2cc(NC(=O)c3ccc(N(C)C)cc3)cc(C)c2cn1 [Example 121, 4-dimethylamino-N-[3-(3-ethyl-ureido)-8-methyl-isoquinolin-6-yl]-benzamide]
2 (≈ 4.91 µM)	CCNC(=O)Nc1cc2cccc(Nc3ccc(OC)c(C(=O)N(C)C)c3)c2cn1 [Example 244, 5-[3-(3-ethyl-ureido)-isoquinolin-8-ylamino]-2-methoxy-N,N-dimethyl-benzamide]
0.125 (≈ 0.33 µM)	CCNC(=O)Nc1cc2cc(NC(=O)c3ccc(OC)cc3)cc(C)c2cn1 [Example 120, N-[3-(3-ethyl-ureido)-8-methyl-isoquinolin-6-yl]-4-methoxy-benzamide]
16	CCNC(=O)Nc1cc2cc(NCc3ccc4ccn(C)c4c3)cc(C)c2cn1.Cl [Example 135, 1-ethyl-3-{8-methyl-6-[((1-methyl-1H-indol-6-yl)methyl)-amino]-isoquinolin-3-yl}-urea hydrochloride]
1 (≈ 2.59 µM)	CCNC(=O)Nc1cc2c(-c3ccncc3)ccc(Oc3cccnc3)c2cn1 [Example 222, 1-ethyl-3-[5-pyridin-4-yl-8-(pyridin-3-yloxy)-isoquinolin-3-yl]-urea]
8 (≈ 25.6 µM)	CCNC(=O)Nc1cc2cccc(Nc3nnc(C)o3)c2cn1 [Example 154, 1-ethyl-3-[8-(5-methyl-[1,3,4]oxadiazol-2-ylamino)-isoquinolin-3-yl]-urea]
16	CCNC(=O)Nc1cc2cc(NCc3ccc4cc[nH]c4c3)cc(C)c2cn1.Cl [Example 134, 1-ethyl-3-{6-[(1H-indol-6-ylmethyl)-amino]-8-methyl-isoquinolin-3-yl}-urea hydrochloride]
2	CCNC(=O)Nc1cc2cccc(Nc3ccc(NC(C)=O)nc3)c2cn1.Cl [Example 161, N-{5-[3-(3-ethyl-ureido)-isoquinolin-8-ylamino]-pyridin-2-yl}-acetamide hydrochloride]
2 (≈ 5.1 µM)	CCNC(=O)Nc1cc2c(N3CCOCC3)ccc(Nc3cccnc3)c2cn1 [Example 274, 1-ethyl-3-[5-morpholin-4-yl-8-(pyridin-3-ylamino)-isoquinolin-3-yl]-urea]
4 (≈ 13 µM)	CCNC(=O)Nc1cc2cccc(Nc3ccccn3)c2cn1 [Example 146, 1-ethyl-3-[8-(pyridin-2-ylamino)-isoquinolin-3-yl]-urea]
1 (≈ 3.25 µM)	CCNC(=O)Nc1cc2c(-c3ccnnc3)ccc(C)c2cn1 [Example 279, 1-ethyl-3-(8-methyl-5-pyridazin-4-yl-isoquinolin-3-yl)-urea]
2 (≈ 5.36 µM)	CCNC(=O)Nc1cc2c(F)c(NCc3ccccc3)cc(Cl)c2cn1 [Example 49, 1-(6-benzylamino-8-chloro-5-fluoro-isoquinolin-3-yl)-3-ethyl-urea]
1 (≈ 3.03 µM)	CCNC(=O)Nc1cc2cc(-c3cccc(C#N)c3)cc(C)c2cn1 [Example 107, 1-[6-(3-cyano-phenyl)-8-methyl-isoquinolin-3-yl]-3-ethyl-urea]
8 (≈ 22 µM)	CCNC(=O)Nc1cc2cc(-c3cncc(C(=O)OC)c3)cc(C)c2cn1 [Example 87, 5-[3-(3-ethyl-ureido)-8-methyl-isoquinolin-6-yl]-nicotinic acid methyl ester]
2	CCNC(=O)Nc1cc2cccc(Nc3ccncc3F)c2cn1.Cl [Example 157, 1-ethyl-3-[8-(3-fluoro-pyridin-4-ylamino)-isoquinolin-3-yl]-urea hydrochloride]
4	CCNC(=O)Nc1cc2cccc(Nc3ccc(CC(N)=O)cc3)c2cn1.Cl [Example 253, 2-{4-[3-(3-ethyl-ureido)-isoquinolin-8-ylamino]-phenyl}-acetamide hydrochloride]
2 (≈ 6.17 µM)	CCNC(=O)Nc1cc2cc(-c3ccc(F)nc3)cc(C)c2cn1 [Example 99, 1-ethyl-3-[6-(6-fluoro-pyridin-3-yl)-8-methyl-isoquinolin-3-yl]-urea]

MIC [mg/L]	Compound
4 (≈ 12.4 µM)	CCNC(=O)Nc1cc2c(-c3cccc(O)c3)ccc(C)c2cn1 [Example 68, 1-ethyl-3-[5-(3-hydroxy-phenyl)-8-methyl-isoquinolin-3-yl]-urea]
2 (≈ 6.17 µM)	CCNC(=O)Nc1cc2cc(-c3cncc(F)c3)cc(C)c2cn1 [Example 102, 1-ethyl-3-[6-(5-fluoro-pyridin-3-yl)-8-methyl-isoquinolin-3-yl]-urea]
8 (≈ 24.6 µM)	CCNC(=O)Nc1cc2cccc(Cn3cc(CO)cn3)c2cn1 [Example 292, 1-ethyl-3-[8-(4-hydroxymethyl-pyrazol-1-ylmethyl)-isoquinolin-3-yl]-urea]
0.5 (≈ 1.3 µM)	CCNC(=O)Nc1cc2c(-c3cccnc3)ccc(Oc3cccnc3)c2cn1 [Example 223, 1-ethyl-3-[5-pyridin-3-yl-8-(pyridin-3-yloxy)-isoquinolin-3-yl]-urea]
1 (≈ 2.51 µM)	CCNC(=O)Nc1cc2c(-c3ccncc3)ccc(Nc3ccc(C)nc3)c2cn1 [Example 218, 1-ethyl-3-[8-(6-methyl-pyridin-3-ylamino)-5-pyridin-4-yl-isoquinolin-3-yl]-urea]
4 (≈ 11.6 µM)	CCNC(=O)Nc1cc2c(-c3ccc4nccn4c3)ccc(C)c2cn1 [Example 7, 1-ethyl-3-(5-imidazo[1,2-a]pyridin-6-yl-8-methyl-isoquinolin-3-yl)-urea]
2	CCNC(=O)Nc1cc2cccc(Nc3cncc(F)c3)c2cn1.Cl [Example 159, 1-ethyl-3-[8-(5-fluoro-pyridin-3-ylamino)-isoquinolin-3-yl]-urea hydrochloride]
1 (≈ 2.87 µM)	CCNC(=O)Nc1cc2cc(-c3ccc(C(N)=O)cc3)cc(C)c2cn1 [Example 30, 4-[3-(3-ethyl-ureido)-8-methyl-isoquinolin-6-yl]-benzamide]
8 (≈ 26 µM)	CCNC(=O)Nc1cc2cccc(Nc3ccncc3)c2cn1 [Example 153, 1-ethyl-3-[8-(pyridin-4-ylamino)-isoquinolin-3-yl]-urea]
4 (≈ 12.6 µM)	Cc1ccc(-c2ccncc2)c2cc(NC(=O)NC3CC3)ncc12 [Example 139, 1-cyclopropyl-3-(8-methyl-5-pyridin-4-yl-isoquinolin-3-yl)-urea]
0.5 (≈ 1.44 µM)	CCNC(=O)Nc1cc2cc(-c3ccc(C(C)=O)cc3)cc(C)c2cn1 [Example 108, 1-[6-(4-acetyl-phenyl)-8-methyl-isoquinolin-3-yl]-3-ethyl-urea]
4 (≈ 12.4 µM)	CCNC(=O)Nc1cc2c(-c3ccncc3)ccc(OC)c2cn1 [Example 125, 1-ethyl-3-(8-methoxy-5-pyridin-4-yl-isoquinolin-3-yl)-urea]
16 (≈ 36.2 µM)	CCNC(=O)Nc1cc2c(-c3ccncc3)ccc(Nc3cccc(C(=O)OC)c3)c2cn1 [Example 220, 3-[3-(3-ethyl-ureido)-5-pyridin-4-yl-isoquinolin-8-ylamino]-benzoic acid methyl ester]
2 (≈ 5.98 µM)	CCNC(=O)Nc1cc2cc(NC(=O)c3ccccc3)ccc2cn1 [Example 52, N-[3-(3-ethyl-ureido)-isoquinolin-6-yl]-benzamide]
8 (≈ 20.4 µM)	CCNC(=O)Nc1cc2cc(NCc3ccc(NC(C)=O)cc3)cc(C)c2cn1 [Example 137, N-(4-{[3-(3-ethyl-ureido)-8-methyl-isoquinolin-6-ylamino]-methyl}-phenyl)-acetamide]
4 (≈ 11 µM)	CCNC(=O)Nc1cc2cccc(Nc3ccc(C(=O)OC)cc3)c2cn1 [Example 179, 4-[3-(3-ethyl-ureido)-isoquinolin-8-ylamino]-benzoic acid methyl ester]
2	CCNC(=O)Nc1cc2cccc(Nc3cc(OC)ccn3)c2cn1.Cl [Example 160, 1-ethyl-3-[8-(4-methoxy-pyridin-2-ylamino)-isoquinolin-3-yl]-urea hydrochloride]
1 (≈ 2.98 µM)	CCNC(=O)Nc1cc2cc(-c3cccc(OC)c3)cc(C)c2cn1 [Example 76, 1-ethyl-3-[6-(3-methoxy-phenyl)-8-methyl-isoquinolin-3-yl]-urea]
2	CCNC(=O)Nc1cc2cccc(Nc3cccc(C(=O)NCc4ccccc4)c3)c2cn1.Cl [Example 201, N-benzyl-3-[3-(3-ethyl-ureido)-isoquinolin-8-ylamino]-benzamide hydrochloride]
4 (≈ 9.51 µM)	CCNC(=O)Nc1cc2cc(NCc3ccnc(N4CCOCC4)c3)cc(C)c2cn1 [Example 185, 1-ethyl-3-{8-methyl-6-[(2-morpholin-4-yl-pyridin-4-ylmethyl)-amino]-isoquinolin-3-yl}-urea]
8	CCNC(=O)Nc1cc2cc(NCc3ccc4c(c3)OCCN4C)cc(C)c2cn1.Cl [Example 130, 1-ethyl-3-{8-methyl-6-[(4-methyl-3,4-dihydro-2H-benzo[1,4]oxazin-7-ylmethyl)-amino]isoquinolin-3-yl}-urea hydrochloride]
0.5 (≈ 1.13 µM)	CCNC(=O)Nc1cc2c(-c3ccnc(C)c3)ccc(Nc3cccc(C(=O)O)c3)c2cn1 [Example 246, 3-[3-(3-ethyl-ureido)-5-(2-methyl-pyridin-4-yl)-isoquinolin-8-ylamino]-benzoic acid]
